Assay results as given in ChEMBL document CHEMBL4265875, “A comprehensive review on Aurora kinase: Small molecule inhibitors and clinical trial studies” (Eur J Med Chem, 2017).

What was measured:
HCT-116 [1] = assay: Antitumor activity against human HCT116 cells xenografted in mouse assessed as inhibition of tumor growth at 15 mg/kg; type: functional; conditions: read-out: TGI
[2] = Half life in tumor of mouse xenografted with human HCT116 cells at 15 to 20 mg/kg; type: ADME, organism-based, Neoplasm
HCT-116 [3] = assay: Antitumor activity against human HCT116 cells xenografted in mouse assessed as inhibition of tumor growth at 20 mg/kg; type: functional; conditions: read-out: TGI
Aurora kinase B [4] = target: T1, Aurora kinase B (Homo sapiens, UniProt Q96GD4); assay: Inhibition of aurora B in human MDA-MB-231 cells assessed as reduction in enzyme autophosphorylation incubated for 4 hrs by high-content immunofluorescence imaging; type: cell-based
T1 sequence (Q96GD4 whole entry): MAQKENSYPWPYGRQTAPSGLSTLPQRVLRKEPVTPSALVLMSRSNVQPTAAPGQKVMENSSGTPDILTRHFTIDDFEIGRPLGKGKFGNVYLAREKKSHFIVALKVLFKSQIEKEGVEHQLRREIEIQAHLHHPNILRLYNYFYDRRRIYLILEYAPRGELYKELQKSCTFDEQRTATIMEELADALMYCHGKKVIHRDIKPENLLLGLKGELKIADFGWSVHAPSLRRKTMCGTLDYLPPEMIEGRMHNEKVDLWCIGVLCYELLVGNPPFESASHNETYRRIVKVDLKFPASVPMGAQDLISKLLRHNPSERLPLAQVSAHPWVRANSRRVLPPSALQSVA

Aurora kinase B [5] = target: T1, Aurora kinase B; assay: Inhibition of full-length His-tagged recombinant aurora B (unknown origin) expressed in insect cells using biotinylated LRRWSLG substrate by scintillation proximity assay
HCT-116 [6] = assay: Antitumor activity against human HCT116 cells xenografted in mouse assessed as inhibition of tumor growth at 20 mg/kg, po qd for 10 days; type: functional; conditions: HCT-116, po, 240 h, read-out: TGI
Aurora kinase B [7] = target: T1, Aurora kinase B; assay: Inhibition of aurora B in human MDA-MB-231 cells assessed as reduction in phosphorylation of histone H3 on Ser10 incubated for 4 hrs by high-content immunofluorescence imaging; type: cell-based
KCL-22 = assay: Induction of apoptosis in human KCL22 cells by Annexin V staining based assay; type: functional, cell-based
HT-29 = assay: Growth inhibition of human HT-29 cells by XTT assay; type: functional, cell-based
HCT-116 [8] = assay: Growth inhibition of human HCT116 cells by XTT assay; type: functional, cell-based
HeLa = assay: Growth inhibition of human HeLa cells by XTT assay; type: functional, cell-based
HCT-116 [9] = assay: Antitumor activity against human HCT116 cells xenografted in nude mouse assessed as reduction in tumor size at 2 mg/kg/hr; type: functional, organism-based; design: scale not given: the % may be the effect or the level left
HL-60 = assay: Antitumor activity against human HL60 cells xenografted in nude mouse assessed as reduction in tumor size at 75 mg/kg, ip bid for 13 days; type: functional, organism-based; design: scale not given: the % may be the effect or the level left
SW-620 = assay: Growth inhibition of human SW620 cells incubated for 72 hrs by MTT assay; type: functional; conditions: SW-620, 72 h
[10] = Inhibition of CYP450 (unknown origin); type: ADME, Homo sapiens
A2780 = assay: Growth inhibition of human A2780 cells incubated for 72 hrs by MTT assay; type: functional; conditions: A2780, 72 h
Aurora kinase B [11] = target: T1, Aurora kinase B; assay: Inhibition of recombinant aurora B (unknown origin)
Aurora kinase A = Aurora kinase A (Homo sapiens, UniProt O14965); assay: Inhibition of recombinant aurora 2 (unknown origin) expressed in Sf21 insect cells incubated for 60 mins using [biotin LRRWSLGLRRWSLGLRRWSLGLRRWSLG substrate and [gamma33P]ATP by beta plate counting method
Aurora kinase A, sequence (O14965 whole entry): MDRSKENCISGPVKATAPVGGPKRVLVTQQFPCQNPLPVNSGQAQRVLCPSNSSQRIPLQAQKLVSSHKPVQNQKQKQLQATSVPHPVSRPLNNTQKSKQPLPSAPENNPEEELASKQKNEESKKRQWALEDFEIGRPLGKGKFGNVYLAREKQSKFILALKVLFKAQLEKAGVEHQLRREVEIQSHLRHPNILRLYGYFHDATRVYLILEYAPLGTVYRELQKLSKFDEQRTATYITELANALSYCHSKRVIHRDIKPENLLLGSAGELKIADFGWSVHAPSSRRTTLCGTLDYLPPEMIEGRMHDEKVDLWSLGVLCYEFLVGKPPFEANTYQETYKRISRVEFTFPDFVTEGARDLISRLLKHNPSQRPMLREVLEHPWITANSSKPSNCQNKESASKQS

PC-3 [12] = assay: Antitumor activity against human PC3 cells xenografted in nude mouse assessed as inhibition of tumor growth at 10 mg/kg, po qd; type: functional; conditions: PC-3, po, read-out: TGI
PC-3 [13] = assay: Antitumor activity against human PC3 cells xenografted in nude mouse assessed as inhibition of tumor growth at 30 mg/kg, po qd; type: functional; conditions: PC-3, po, read-out: TGI
SW48 [14] = assay: Antitumor activity against human SW48 cells xenografted in nude rat assessed as reduction in tumor growth at 15 mg/kg, po administered twice daily for 2 days per week for 3 weeks and measured on day 27 relative to untreated control; type: functional
[15] = Plasma concentration in F344/N Jcl-rnu rat xenografted with luciferase expressing human HeLa cells at 16 mg/kg, po BID for 2 days; type: ADME, organism-based
[16] = Plasma concentration in F344/N Jcl-rnu rat xenografted with luciferase expressing human HeLa cells at 32 mg/kg, po BID for 2 days; type: ADME, organism-based
HCC1143 = assay: Antiproliferation activity against human HCC1143 cells assessed as inhibition of cell proliferation; type: functional, cell-based
SW48 [17] = assay: Antitumor activity against human SW48 cells xenografted in nude rat assessed as reduction in tumor growth at 45 mg/kg, po administered twice daily for 2 days per week measured on day 10 relative to untreated control; type: functional
HCT-116 [18] = assay: Antitumor activity against human HCT116 cells xenografted in SCID mouse assessed as reduction in tumor bulk at 15 mg/kg, po bid for 12 days relative to untreated control; type: functional
SW48 [19] = assay: Antitumor activity against human SW48 cells xenografted in nude rat assessed as reduction in tumor growth at 15 mg/kg, po administered twice daily for 2 days per week measured on day 10 relative to untreated control; type: functional
SW48 [20] = assay: Antitumor activity against human SW48 cells xenografted in nude rat assessed as reduction in tumor growth at 45 mg/kg, po administered twice daily for 2 days per week for 3 weeks and measured on day 27 relative to untreated control; type: functional
MCF7 = assay: Antiproliferation activity against human MCF7 cells assessed as inhibition of cell proliferation; type: functional, cell-based
CAL-85-1 = assay: Antiproliferation activity against human CAL851 cells assessed as inhibition of cell proliferation; type: functional, cell-based
HCT-116 [21] = assay: Antitumor activity against human HCT116 cells xenografted in SCID mouse assessed as reduction in tumor bulk at 30 mg/kg, po bid for 12 days relative to untreated control; type: functional
AU565 = assay: Antiproliferation activity against human AU565 cells assessed as inhibition of cell proliferation; type: functional, cell-based
HCC1806 = assay: Antiproliferation activity against human HCC1806 cells assessed as inhibition of cell proliferation; type: functional, cell-based
MM1.S [22] = assay: Antitumor activity against human MM1S cells xenografted in gamma-irradiated CB17 SCID mouse assessed as inhibition of tumor growth at 15 mg/kg, po dosed daily for 21 days; type: functional; conditions: light or radiation study, 504 h, read-out: TGI
[23] = Suppression of cell mitosis in human multiple myeloma cells; type: functional
MM1.S [24] = assay: Antitumor activity against human MM1S cells xenografted in gamma-irradiated CB17 SCID mouse assessed as inhibition of tumor growth at 30 mg/kg, po dosed daily for 21 days; type: functional; conditions: light or radiation study, 504 h, read-out: TGI

Q: With `O=C(Nc1c[nH]nc1-c1nc2ccc(CN3CCOCC3)cc2[nH]1)NC1CC1` [AT-9283] as the molecule, how does the inhibition in vivo at 15 mg/kg (HCT-116 [1]) read?
A: 67%

Q: What about the half-life [2] of the same molecule?
A: 2.5 h

Q: What about the inhibition in vivo at 20 mg/kg (HCT-116 [3]) of the same molecule?
A: 76%

Q: With `CC(=O)NCC(=O)N1[C@@H]2CC[C@H]1c1ccc(Nc3ncc(C(F)(F)F)c(NC4CCC4)n3)cc12` [PF-03814735] as the molecule, how does the IC50 (Aurora kinase B [4]) read?
A: 11 nM

Q: And the IC50 (Aurora kinase B [5])?
A: 5 nM

Q: And the inhibition in vivo at 20 mg/kg (HCT-116 [6])?
A: ≤ 50%

Q: And the IC50 (Aurora kinase B [7])?
A: 50 nM

Q: Which IC50 (KCL-22) does the source give for `CCN1CCN(C(=O)Cc2ccc(Nc3ncc(F)c(Nc4ccc(C(=O)Nc5ccccc5Cl)cc4)n3)cc2)CC1` here?
A: 5000 nM

Q: What about the IC50 (HT-29) of the same molecule?
A: 5600 nM

Q: What about the IC50 (HCT-116 [8]) of the same molecule?
A: 190 to 378 nM

Q: And the IC50 (HeLa)?
A: 416 nM

Q: Which Activity (HCT-116 [9]) does the source give for `Cc1cc(Nc2cc(N3CCN(C)CC3)nc(Sc3ccc(NC(=O)C4CC4)cc3)n2)n[nH]1` here?
A: 56%

Q: What about the Activity (HL-60) of the same molecule?
A: 98%

Q: Which results are given for `Cc1cc(CN2CCN(c3c(Br)cnc4nc(-c5ccc(N6CCN(C)CC6)cc5)[nH]c34)CC2)no1`?
A: GI50 (SW-620): 140 nM; IC50 [10]: > 10000 nM; GI50 (A2780): 300 nM

Q: For `COc1cc2c(Nc3ccc(C(=O)Nc4ccccc4)cc3)ncnc2cc1O`, which IC50 (Aurora kinase B [11]) is on record?
A: 41 nM

Q: And the IC50 (Aurora kinase A)?
A: 60 nM

Q: For `O=C(O)c1ccc(Nc2ncc3c(n2)-c2ccc(Cl)cc2C(c2c(F)cccc2F)=NC3)cc1` [MLN-8054], which inhibition in vivo at 10 mg/kg (PC-3 [12]) is on record?
A: 76%

Q: What about the inhibition in vivo at 30 mg/kg (PC-3 [13]) of the same molecule?
A: 84%

Q: For `O=C(O)[C@]1(Cc2cccc(Nc3nccs3)n2)CC[C@@H](Oc2cccc(Cl)c2F)CC1` [MK-5108], which T/C (SW48 [14]) is on record?
A: 58%

Q: What about the concentration at 48 h [15] of the same molecule?
A: 1.7 µM

Q: And the concentration at 48 h [16]?
A: 4.4 µM

Q: And the IC50 (HCC1143)?
A: 420 nM

Q: And the T/C (SW48 [17])?
A: 7%

Q: And the T/C (HCT-116 [18])?
A: 10%

Q: What about the T/C (SW48 [19]) of the same molecule?
A: 35%

Q: What about the T/C (SW48 [20]) of the same molecule?
A: 32%

Q: And the IC50 (MCF7)?
A: 520 nM

Q: And the IC50 (CAL-85-1)?
A: 740 nM

Q: What about the T/C (HCT-116 [21]) of the same molecule?
A: 6%

Q: What about the IC50 (AU565) of the same molecule?
A: 450 nM

Q: And the IC50 (HCC1806)?
A: 560 nM

Q: What does the source list for `COc1cc(Nc2ncc3c(n2)-c2ccc(Cl)cc2C(c2c(F)cccc2OC)=NC3)ccc1C(=O)O` [ALISERTIB]?
A: inhibition in vivo at 15 mg/kg (MM1.S [22]): 42%; IC50 [23]: 3 to 1710 nM; inhibition in vivo at 30 mg/kg (MM1.S [24]): 80%
